These molecules were tested against T1, human IDO1 (Homo sapiens, UniProt P14902) (assay: HEK Human IDO-1 inhibition assay (kynurenine readout, Ehrlich reagent, absorbance 490 nm)). Details: human IDO1/HEK293 cells, incubated 20 hours with compound; 500 nM reference standard = 100% inhibition.
T1 construct: expressed in transfected cells
Type: cell-based
In short: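 HEK293 cells stably expressing human IDO1, treated with compound for 20 h at 37 °C in phenol red-free RPMI/10% FBS. Kynurenine detected after TCA (0.2% final, 50 °C, 30 min) by Ehrlich reagent absorbance at 490 nm; IC50 normalised to 500 nM reference standard (100%) and DMSO (0%).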

T1 sequence (P14902 whole entry): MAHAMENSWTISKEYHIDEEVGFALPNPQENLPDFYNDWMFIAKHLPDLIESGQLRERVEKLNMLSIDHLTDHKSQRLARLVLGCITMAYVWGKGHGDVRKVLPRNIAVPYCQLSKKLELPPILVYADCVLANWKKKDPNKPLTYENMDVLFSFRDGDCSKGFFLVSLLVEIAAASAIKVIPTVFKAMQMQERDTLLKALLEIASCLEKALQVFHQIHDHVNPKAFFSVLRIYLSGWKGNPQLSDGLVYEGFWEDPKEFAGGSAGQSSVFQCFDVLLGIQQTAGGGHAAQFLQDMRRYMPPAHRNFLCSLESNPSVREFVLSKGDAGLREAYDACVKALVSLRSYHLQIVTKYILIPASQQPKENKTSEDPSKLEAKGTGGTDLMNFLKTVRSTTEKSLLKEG

Compound | IC50 [nM]
CCOC(=O)COc1ccc(N(CC(C)C)C2CCCCC2)c(NC(=O)Nc2ccc(Cl)cc2F)c1 [Example 42, ethyl 2-(3-(3-(4-chloro-2-fluorophenyl)ureido)-4-(cyclohexyl(isobutyl)amino)phenoxy)acetate] | < 5
CC(C)CN(c1ccc(OCC(=O)O)cc1Nc1nc2ccccc2o1)C1CCCCC1 [Example 44, 2-(3-(benzo[d]oxazol-2-ylamino)-4-(cyclohexyl(isobutyl)amino)phenoxy)acetic acid] | ≥ 100
CC(C)CN(c1ccc(OCC(=O)NS(=O)(=O)N(C)C)cc1NC(=O)Nc1ccc(Cl)cc1F)C1CCCCC1 [Example 46, 2-(3-(3-(4-chloro-2-fluorophenyl)ureido)-4-(cyclohexyl(isobutyl)amino)phenoxy)-N—(N,N-dimethylsulfamoyl)acetamide] | < 5
CC(C)CN(c1ccc(OCC(=O)NS(=O)(=O)C2CC2)cc1NC(=O)Nc1ccc(Cl)cc1F)C1CCCCC1 [Example 47, 2-(3-(3-(4-chloro-2-fluorophenyl)ureido)-4-(cyclohexyl (isobutyl)amino)phenoxy)-N-(cyclopropyl-sulfonyl)acetamide] | < 5
CC(C)CN(c1ccc(OCC(=O)NS(=O)(=O)C(C)(C)C)cc1NC(=O)Nc1ccc(Cl)cc1F)C1CCCCC1 [Example 48, N-(tert-butylsulfonyl)-2-(3-(3-(4-chloro-2-fluorophenyl)ureido)-4-(cyclohexyl(isobutyl)amino)phenoxy) acetamide] | < 5
CC(C)CN(c1ccc(OCC(=O)NS(=O)(=O)c2cccs2)cc1NC(=O)Nc1ccc(Cl)cc1F)C1CCCCC1 [Example 49] | < 5
Cc1cc(NC(=O)Nc2cc(OCC(=O)NS(=O)(=O)C3CC3)ccc2N(CC(C)C)C2CCCCC2)no1 [Example 50, 2-(4-(cyclohexyl(isobutyl)amino)-3-(3-(5-methyl-isoxazol-3-yl)ureido)phenoxy)-N-(cyclopropylsulfonyl)acetamide] | ≥ 100
CC(C)CN(c1ccc(OCC(=O)NS(=O)(=O)N(C)C)cc1NC(=O)Nc1ccccc1F)C1CCCCC1 [Example 51, 2-(4-(cyclohexyl(isobutyl)amino)-3-(3-(2-fluoro-phenyl)ureido)phenoxy)-N—(N,N-dimethylsulfamoyl)acetamide] | < 5
Cc1ccc(NC(=O)Nc2cc(OCC(=O)NS(=O)(=O)C3CC3)ccc2N(CC(C)C)C2CCCCC2)cc1 [Example 53, 2-(4-(cyclohexyl(isobutyl)amino)-3-(3-(p-tolyl)ureido)phenoxy)-N-(cyclopropylsulfonyl)acetamide] | < 100

Other lines, results leading:

IC50 [nM] | Compound
≥ 100 | CC(C)CN(c1ccc(OCC(=O)O)cc1NC(=O)Nc1ccc(C#N)cc1)C1CCCCC1 [Example 39, 2-(3-(3-(4-cyanophenyl)ureido)-4-(cyclohexyl(isobutyl)amino)phenoxy)acetic acid]
≥ 100 | Cc1ccc(N(C)C(=O)Nc2cc(OCC(=O)O)ccc2N(CC(C)C)C2CCCCC2)cc1 [Example 40, 2-(4-(cyclohexyl(isobutyl)amino)-3-(3-methyl-3-(p-tolyl)ureido)phenoxy)acetic acid]
≥ 100 | CC(C)CN(c1ccc(OCC(=O)O)cc1NC(=O)N(C)c1ccc(F)cc1)C1CCCCC1 [Example 41, 2-(4-(cyclohexyl(isobutyl)amino)-3-(3-(4-fluorophenyl)-3-methyl-ureido)phenoxy)acetic acid]
< 5 | CC(C)CN(c1ccc(OCC(=O)O)cc1NC(=O)Nc1ccc(C#N)cc1F)C1CCCCC1 [Example 43, 2-(3-(3-(4-cyano-2-fluorophenyl)ureido)-4-(cyclohexyl(isobutyl)amino)phenoxy)acetic acid]
≥ 100 | CC(C)CN(c1ccc(OCC(=O)O)cc1N(C)C(=O)Nc1ccc(Cl)cc1F)C1CCCCC1 [Example 45]
< 100 | Cc1ccc(NC(=O)Nc2cc(OCC(=O)NS(=O)(=O)N(C)C)ccc2N(CC(C)C)C2CCCCC2)cc1 [Example 52, 2-(4-(cyclohexyl(isobutyl)amino)-3-(3-(p-tolyl)ureido)phenoxy)-N—(N,N-dimethylsulfamoyl)acetamide]
